Reference: patent US7247734B2 (Vernalis (Cambridge) Limited, priority 2001, dated 2007)

What was measured:
yeast HSP90 = molecular target: T1, yeast HSP90 (Saccharomyces cerevisiae, UniProt P02829); assay: Malachite green HSP90 ATPase assay; assay type: biochemical; settings: activity range, ATPase assay; read-out: ATPase IC50
T1 construct: made in house; host or cells: E. coli
Description: Two methods have been developed to measure the intrinsic ATPase activity of HSP90, using yeast HSP90 as a model system. The first method utilises a regenerating coupled enzyme assay. The second assay, based on the use of malachite green for the measurement of inorganic phosphate, was designed for high throughput screening (HTS) to identify novel HSP90 inhibitor drug candidates.
Colorimetric assays for the determination of phosphate, based on the formation of a phosphomolybdate complex, can be carried out in a few steps with inexpensive reagents and are well suited to the automation required for high throughput screening (see, e.g., Cogan et al., 1999). Enzymes that release inorganic phosphate are assayed using the reaction of the cationic dye, malachite green, with the a complex formed by a reaction of the inorganic phosphate with molybdate to generate a blue-green colour with an absorbance maximum at 610 nm (see, e.g., Baykov et al., 1988; Harder et al., 1994; Maehama et al., 2000). The method has been used in both high throughput (see, e.g., Rumsfeld et al., 2000) and ultra-high throughput screening formats (see, e.g., Layery et al., 2001) for a variety of non-HSP90 ATPases. However, this method is complicated by the non-enzymatic hydrolysis of ATP in the presence of acidic malachite green reagent, causing an increase in colour (see, e.g., Chan et al., 1986; Henkel et al., 1988). This process is mediated by molybdate and can be overcome by the addition of sodium citrate immediately after the reagent (see, e.g., Lanzetta et al., 1979; Schirmer et al., 1998; Baginski et al., 1975). This modification has been adapted to the 96-well microtitre plate assay previously described for other ATPases (see, e.g., Lanzetta et al., 1979) to produce the following protocol for HSP90 ATPase, which is suitable for high throughput screening.
Chemicals are of the highest purity commercially available and all aqueous solutions are made up in AR water. Because of the need to minimise contamination with inorganic phosphate, precautions should be taken with solutions and apparatus used in the assays. Glassware and pH meters are rinsed with double distilled or deionised water before use and, wherever possible, plastic ware should be used. Gloves are worn for all procedures. • (1) Immulon 96-well (Thermo Labsystems, Basingstoke, UK) or Cliniplate 384-well flat-bottomed polystyrene multiwell plates (Thermo Labsystems). • (2) Assay buffer of (a) 100 mM Tris-HCl, pH 7.4, (b) 20 mM KCl, (c) 6 mM MgCl2. Stored at 4° C. • (3) 0.0812% (w/v) malachite green (M 9636, Sigma Aldrich Ltd., Poole, UK). Stored at room temperature. • (4) 2.32% (w/v) polyvinyl alcohol USP (P 1097, Sigma Aldrich Ltd, Poole, UK) in boiling water (see Comment 1), allowed to cool, and stored at room temperature. • (5) 5.72% (w/v) ammonium molybdate in 6 M hydrochloric acid. Stored at room temperature. • (6) 34% (w/v) sodium citrate. Stored at room temperature. • (7) ATP, disodium salt, special quality (519979, Boehringer Mannheim, Lewes, UK). Stored at 4° C. • (8) E. coli expressed yeast HSP90 protein, purified >95% (see, e.g., Panaretou et al., 1998) and stored at −80° C. as 10 μl aliquots containing 0.5 mg of protein. Method
The following protocol was used: • (1) On the day of use, prepare the malachite green reagent from the stock solutions. Mix (a) 2 parts of malachite green, (b) 1 part of polyvinyl alcohol, (c) 1 part of ammonium molybdate, and (d) 2 parts of water. Initially, the reagent is a dark brown colour, but after standing at room temperature for about 2 h, this becomes a golden yellow colour and is ready for use. • (2) For the high throughput screening assays, the test compounds are dissolved at 200 μM in 2.0% DMSO and contained in daughter plates derived from the chemical libraries. Transfer 5 μl of each sample from the daughter plate to each well of the assay plate using automated equipment (see Comment 3). This represents a final concentration in the well of 40 μM.

[1] = test system: HCT116 human colon tumour cells; assay: 96 h growth inhibition assay (SRB), HCT116; assay type: cell-based; settings: Homo sapiens, HCT-116; HCT116, 96 h
Procedure: (§1) The growth inhibition assay employed was based on that described previously (Kelland et al., 1993). HCT116 and HT29 human colon tumour cells (American Tissue Culture Collection) were seeded into 96-well tissue culture plates (approximately 1600–2000 cells per well) and allowed to attach for 36 hours. Eight wells were treated with a single concentration from a range of compound concentrations and incubated for 96 hours. Cells were fixed using ice cold 10% trichloroacetic acid (TCA). Plates were then washed five times with water, air dried, and stained with 0.4% sulphorhodamine B (SRB) in 1% acetic acid for 10 minutes. The SRB stain was solubilised in 10 mM Tris-HCl and the absorbance measured at 540 nm using a Titertek Multiscan MCC/340 MKII plate reader (Flow Laboratories, IEC, Basingstoke, N.H.). The absorbance values correspond to total protein content and are used as a measure of cell growth.

HSP70 in HCT116 cells = assay: Cell-based ELISA for HSP70 expression; design: species or system human; settings: HCT116, 1 μM compound
Description: Cell-based ELISA methods (see, e.g., Stockwell et al., 1999; Versteeg et al., 2000) offer several advantages for evaluating the pharmacodynamic effects of novel mechanism-based inhibitors and may be the method of choice for comparing inhibitors that are identified during the iterative process of lead identification and optimisation. The technique can be used to rapidly rank the effectiveness of compounds as well as to investigate the molecular mechanisms of their action. The increased sample throughput possible with ELISA means that compounds can be simultaneously studied in multiple replicates at different doses and exposure times. […] The assays are carried out directly on cells grown and treated in microtitre plates, thereby removing the necessity for preparing cell lysates. ELISA techniques can in theory be applied to any cellular protein or post-translational modification for which an antibody is available and results are at least semi-quantitative.
Chemicals are of the highest purity commercially available. • (1) Human colon tumour cell lines (e.g., HCT116 and HT29 from American Tissue Culture Collection, ATCC) grown in Dulbecco's modified Eagle's medium (DMEM) (CSSD, Institute of Cancer Research, London, UK) supplemented with […] glucose, 10% foetal bovine serum (FBS), 200 mM L-glutamine, and 5 ml non-essential amino acids in a humidified atmosphere of 5% CO2 at 37° C. • (2) 96 well Falcon clear microtitre tissue culture plates (BD Labware, Hospital Management and Supplies, Ltd., Northampton, UK). • (3) DMSO diluted in dH2O (8%). • (4) HSP90 inhibitors at required concentration dissolved in DMSO. • (5) Fixing solution (0.25% glutaraldehyde, 3% paraformaldehyde and 0.25% Triton-X 100) (all from Sigma Aldrich Ltd, Poole, UK). • (6) Blocking solution (5% dried milk (Marvel) in PBS) prepared daily. • (7) Anti HSP70 monoclonal antibody (SPA 810, Bioquote, York, UK). • (8) DELFIA® wash buffer, enhancement solution, assay buffer and Europium labelled anti-mouse IgG (1244–1330) (PerkinElmer Life Sciences, Milton Keynes, UK). • (9) BCA protein assay reagents (Perbio Science UK Ltd., Chester, UK). Method
Incubate at 37° for 30 min. • (6) Wash plates twice in PBS using an automated washer (Wellwash 5000 ten plate stacker-washer or Wellwash Ascent single plate washer, Thermo Labsystems, Basingstoke, UK). • (7) Block the plates by addition of blocking solution (100 μl) and incubate for 30 min. • (8) Add 100 μl primary antibody diluted to 0.95 μg/ml in PBS to each well and incubate plate for 1.5 h. Wash plates once with DELFIA® wash solution. • (9) Add 100 μl Europium labelled anti-mouse IgG diluted in DELFIA® assay buffer to 75 ng/ml and incubate for 1 hour. Wash plates once with DELFIA® wash solution as before. • (10) Add 100 μl DELFIA® enhancement solution to each well. • (11) Measure the fluorescence (615 nm) in Victor 2 1420 multilabel counter (Perkin Elmer Life Sciences, Milton Keynes, UK) using time-resolved measurement mode. • (12) Wash plates once with PBS and measure protein concentration by the addition of 200 μl BCA reagent to each well, shake for 1–2 min and incubate for 30 mins at 37° C. Read absorption at 570 nm. • (13) Express ELISA results by normalising to protein in the well (Eu counts (cpm) divided by OD@ 570 nm). Compare the effect of HSP90 inhibitors on HSP70 expression with DMSO treated controls. Comments • (1) Cells plated into 96 well plates are incubated in a plastic box to reduce evaporation from the outside wells. […]

[2] = test system: HT29 human colon tumour cells; assay: 96 h growth inhibition assay (SRB), HT29; assay type: cell-based; settings: Homo sapiens, HT-29; HT29, 96 h
Procedure: as §1

HCT116 cells = assay: Cellular protein by BCA assay after compound exposure (ELISA plates); assay type: cell-based, human; settings: HCT116, 1 μM compound
Procedure: Incubate at 37° for 30 min. • (6) Wash plates twice in PBS using an automated washer (Wellwash 5000 ten plate stacker-washer or Wellwash Ascent single plate washer, Thermo Labsystems, Basingstoke, UK). • (7) Block the plates by addition of blocking solution (100 μl) and incubate for 30 min. • (8) Add 100 μl primary antibody diluted to 0.95 μg/ml in PBS to each well and incubate plate for 1.5 h. Wash plates once with DELFIA® wash solution. • (9) Add 100 μl Europium labelled anti-mouse IgG diluted in DELFIA® assay buffer to 75 ng/ml and incubate for 1 hour. Wash plates once with DELFIA® wash solution as before. • (10) Add 100 μl DELFIA® enhancement solution to each well. • (11) Measure the fluorescence (615 nm) in Victor 2 1420 multilabel counter (Perkin Elmer Life Sciences, Milton Keynes, UK) using time-resolved measurement mode. • (12) Wash plates once with PBS and measure protein concentration by the addition of 200 μl BCA reagent to each well, shake for 1–2 min and incubate for 30 mins at 37° C. Read absorption at 570 nm. • (13) Express ELISA results by normalising to protein in the well (Eu counts (cpm) divided by OD@ 570 nm). Compare the effect of HSP90 inhibitors on HSP70 expression with DMSO treated controls. Comments • (1) Cells plated into 96 well plates are incubated in a plastic box to reduce evaporation from the outside wells. In addition, ELISA incubation steps are carried out in a 37° C. laboratory incubator and in a moist environment e.g., plastic box lined with damp tissue paper. • (2) All additions to the microtitre plate can be achieved using a multichannel pipette or for larger numbers of plates an automated dispenser such as a Multidrop (Thermo Labsytems, Basingstoke, UK). • (3) For convenience, if the effects of compounds are being studied at several time points the ELISA can be carried out in batches, plates being stored (in a container) at 4° C. following the fixation step. In this case the plates are washed only once following fixation and again immediately before the first ELISA step (step 6 above). In addition all the plates can be stored for subsequent protein estimation. • (4) Reproducibility of both the measured Europium counts and the protein measurements was between 10–15% (CV). • (5) DELFIA® reagents (see, e.g., Hemmila and Webb, 1997) have been routinely used in cell-based ELISAs. This endpoint provides high sensitivity and the time-resolved measurements reduce interference from non-specific fluorescence. However, it is also possible to use a horse radish peroxidase second antibody conjugate and either a calorimetric (e.g., tetramethylbenzidine) or chemiluminescent reagent (e.g., ECL reagent (Amersham Pharmacia Biotech, Little Chalfont, Bucks, UK) for endpoint measurement. • (6) It is recommended that a blank consisting of second-antibody only (i.e., no first antibody) together with an appropriate first antibody control (e.g., isotype matched IgG) are included in assays during the process of optimising reagent concentrations. Growth Inhibition Assay
The effect of various compounds of the present invention on the expression of the molecular marker HSP70 was determined using the cell-based ELISA and a specific monoclonal antibody to HSP70 in HCT116 cells, as described above. Cellular protein following compound exposure was determined using BCA assay as described in the method.

T1 sequence (P02829 whole entry, looked up): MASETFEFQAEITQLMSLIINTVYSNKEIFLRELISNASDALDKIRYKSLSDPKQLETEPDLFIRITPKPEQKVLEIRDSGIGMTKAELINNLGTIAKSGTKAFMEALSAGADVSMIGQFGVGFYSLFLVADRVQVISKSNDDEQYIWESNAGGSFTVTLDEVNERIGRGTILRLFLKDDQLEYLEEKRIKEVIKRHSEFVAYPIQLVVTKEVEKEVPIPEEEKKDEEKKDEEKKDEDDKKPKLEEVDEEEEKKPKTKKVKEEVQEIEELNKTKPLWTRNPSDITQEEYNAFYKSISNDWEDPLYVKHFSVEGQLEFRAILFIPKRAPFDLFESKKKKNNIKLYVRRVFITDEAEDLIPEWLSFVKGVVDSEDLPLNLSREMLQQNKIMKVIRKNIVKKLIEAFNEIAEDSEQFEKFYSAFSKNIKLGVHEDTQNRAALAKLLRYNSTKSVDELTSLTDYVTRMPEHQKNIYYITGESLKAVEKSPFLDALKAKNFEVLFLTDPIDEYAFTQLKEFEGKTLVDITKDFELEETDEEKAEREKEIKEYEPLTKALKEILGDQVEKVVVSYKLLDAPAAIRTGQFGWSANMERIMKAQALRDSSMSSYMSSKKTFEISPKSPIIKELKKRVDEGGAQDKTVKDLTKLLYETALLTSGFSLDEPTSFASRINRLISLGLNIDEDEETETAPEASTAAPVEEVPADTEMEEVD

Row | SMILES | IC50 (yeast HSP90) [µM] | also measured
1 | Cc1nc2cc(-c3c[nH]nc3-c3cc(Cl)c(O)cc3O)ccc2s1 [Example 176] | < 50 | –
2 | Oc1cc(O)c(-c2n[nH]cc2-c2cncnc2)cc1Cl [Example 177] | < 50 | –
3 | NC(=O)c1ccc(-c2c[nH]nc2-c2cc(Cl)c(O)cc2O)cc1 [Example 181] | < 50 | –
4 | O=C(O)c1ccc(-c2c[nH]nc2-c2cc(Cl)c(O)cc2O)cc1 [Example 182] | < 50 | –
5 | COC1=C2C[C@@H](C)C[C@H](OC)[C@H](O)[C@@H](C)/C=C(\C)[C@H](OC(N)=O)[C@@H](OC)/C=C\C=C(/C)C(=O)NC(=CC1=O)C2=O [Geldanamycin, geldanamycin, reference compound] | – | IC50 [1]: 0.07 µM; % increase in HSP70 (Normalised Europium Counts compared to DMSO controls) (HSP70 in HCT116 cells; (48 h)): 270%; % increase in HSP70 (Normalised Europium Counts compared to DMSO controls) (HSP70 in HCT116 cells; (time not given)): 169%; IC50 [2]: 0.05 µM; Cellular Protein (% DMSO controls) (HCT116 cells; (48 h)): 46.3%; Cellular Protein (% DMSO controls) (HCT116 cells; (time not given)): 75.3%

Continued, in another order:

Row | IC50 (yeast HSP90) [µM] | SMILES | also measured
6 | < 50 | Oc1cc(O)c(-c2n[nH]cc2-c2ccncc2)cc1Cl [Example 175] | –
7 | > 50 | COc1ccc(-c2c(C)n[nH]c2-c2cc(C(=O)NN)c(O)cc2O)cc1 [Example 178] | –
8 | < 50 | COc1ccc(-c2c(-c3cc(Cl)c(O)cc3O)n[nH]c2Br)cc1 [Example 179, 4-[5-Bromo-4-(4-methoxy-phenyl)-1H-pyrazol-3-yl]-6-chloro-benzene-1,3-diol] | –
9 | < 50 | CNC(=O)c1ccc(-c2c[nH]nc2-c2cc(Cl)c(O)cc2O)cc1 [Example 180] | –
10 | > 50 | COc1ccc(-c2c(-c3ccc(CO)cc3O)n[nH]c2C)cc1 [Example 183] | –
